Data published in patent publication US20080280810A1, “PEPTIDES HAVING AFFINITY FOR BODY SURFACES” (priority 2006, published 2008).

Experiments:
[1] = Phage ELISA, bovine polished enamel binding assay; details: over 10^10 pfu purified phage, anti-M13 HRP conjugate, TMB, no phage control 0.193
Protocol: (§1) A total of 11 selected phage candidates (Example 32) was used in a phage ELISA experiment. Purified phage lysates were used for binding to the enamel blocks using an anti-M13 phage antibody conjugated to horseradish-peroxidase, followed by the addition of chromogenic agent TMB, obtained from Pierce Biotechnology (Rockford, Ill.). The plates were read at A450 nm.
(§2) For each phage candidate to be tested, the polished and unpolished enamel blocks were incubated for 1 h at room temperature with 200 μL of blocking buffer, consisting of 2% non-fat dry milk (Schleicher & Schuell, Inc.) in TBS. The blocking buffer was removed by aspirating the liquid out of each tube. The tube was rinsed 6 times with wash buffer consisting of TBST-0.05%. The wells were filled with 200 μL of TBST-0.5% containing 1 mg/mL BSA and then 10 μL (over 10^10 pfu) of purified phage stock was added. The samples were incubated at room temperature for 60 min with slow shaking. The non-binding phage was removed by washing 6 times with TBST-0.5%. Then, 100 μL of horseradish peroxidase/anti-M13 antibody conjugate (Amersham USA, Piscataway, N.J.), diluted 1:500 in the blocking buffer, was added and incubated for 1 h at room temperature. The conjugate solution was removed and was washed 6 times with TBST-0.5%. TMB substrate (200 μL), obtained from Pierce Biotechnology (Rockford, Ill.) was added to each well and the color was allowed to develop for 5 to 30 min, typically for 10 min, at room temperature. Then, stop solution (200 μL of 2 M H2SO4) was added to each well and the solution was transferred to a 96-well plate and the A450 was measured using a microplate spectrophotometer (Molecular Devices, Sunnyvale, Calif.). BoEn means bovine enamel and BoEn P means polished bovine enamel.

[2] = Phage ELISA, bovine enamel binding assay; details: over 10^10 pfu purified phage, anti-M13 HRP conjugate, TMB, no phage control 0.112
Protocol: as §1, §2

[3] = Color retention after shampoo treatment, peptide as sealant with Acid Red 33 dye; design: species or system human; details: 0.50 wt % Acid Red 33, peptide 0.25 wt %, 30 min contact, after one shampoo treatment; vs uncolored hair; larger = better color retention; dye alone 19.63
Protocol: The peptides used in this Example were prepared as described in Examples 1-3. The color retention was quantified using a spectrophotometric measurement technique.
A peptide given as SEQ ID NO:41, SEQ ID NO:42, or SEQ ID NO:43 (38 mg), produced via fermentation as described in Examples 1-3, was added to 15 g of an aqueous 0.50 wt % solution of Acid Red 33 (Abbey Color, Philadelphia, Pa.) and the solution was allowed to stir for 1 h. A natural white hair tress (1 cm wide, potted, International Hair Importers & Products Inc., Bellerose, N.Y.) was inserted into a 15 mm×125 mm test tube and 13 mL of the peptide/dye mixture was injected into the test tube. The hair tress was immersed in contact with the colorant solution for 30 min and the colorant solution was agitated using a magnetic stirrer. The tress was removed, allowed to drip dry, and then air dried for 30 min.
The hair tress was then subjected to a water rinse using copious amounts of deionized water, followed by a shampoo treatment with embrocation for 30 seconds. The shampoo treatment involved the application of Pantene Pro-V Sheer Volume shampoo (Proctor & Gamble, Cincinnati, Ohio) to the hair as follows. A quarter-sized drop of the shampoo was distributed evenly over the hair tress and then was massaged aggressively into the hair for 30 sec, after which the hair tress was rinsed with water to remove the shampoo. The hair tress was then dried at room temperature. The entire procedure described above was repeated without the addition of the hair-binding peptide to serve as a control.
The color intensity after the shampoo treatment was measured using an X-Rite® SP78™ Sphere Spectrophotometer (X-Rite, Inc., Grandville, Mich.), by placing the colored hair sample into the photosensor and calculating L*, a* and b* parameters representing the photometer response. An initial baseline L* value was measured for the uncolored hair and all measurements were the average of three individual determinations. Delta E values were calculated using equation 1 below: […]

[4] = Co-application of multi-block peptide with semi-permanent dye (Arianor Ebony), color retention; design: species or system human; key: ΔE of peptide sample minus peptide-free control; larger = better retention; details: difference in Delta E between peptide sample and peptide free control after 3 embrocation cycles (about 12 manual shampoos); pH 8.5-9.0; >2 benefit, >4 substantial benefit
Protocol: (§3) A 0.5% aqueous solution of Arianor Ebony (Sensient Technologies Corp, Milwaukee, Wis.) containing 3% benzyl alcohol and 0.05% diazolidinyl urea (biocide) was prepared. Dye insolubles were removed by filtration and the pH of the dye solution was adjusted to 8.50-9.0, using ethanolamine.
(§4) Approximately 1 mL of the dye solution was added to selected wells of a 24-well plate (Thomson Instrument Co., Oceanside, Calif.; part # 931565). A multi-block peptide (see Table 12) was dissolved in a solution consisting of 3 wt % benzyl alcohol and 95 wt % water to yield a peptide concentration of 2 wt % or approximately 20 mg/mL. The pH was adjusted to 8.5-9.0 using ethanolamine. The peptide solution was then pipetted into test wells containing dye solution in the amount of 1 mL or 0.2 mL respectively. The total volume in each test well was then adjusted to 2 mL where necessary using 3% aqueous benzyl alcohol (pH adjusted to 8.5-9.0 with ethanolamine). Peptide free controls consisted of 1 mL of dye solution diluted to 2 mL with the pH adjusted aqueous benzyl alcohol solution.
(§5) Baseline […] readings were made on one inch long tresses (see below) using an X-RITE® SP78™ Sphere Spectrophotometer (X-Rite, Inc., Grandville, Mich.), by placing the hair tress into the photosensor and calculating L*, a* and b* parameters representing the photometer response. All measurements were the average of three individual determinations.
(§6) The tresses (potted on one end with resin) of natural white, 85% gray or regular bleached hair (International Hair Importers and Products, Bellerose, N.Y.) were immersed in the peptide/dye solution and the entire well plate was agitated on a VORTEX-GENIE® 2 Mixer (Scientific Industries, Bohemia, N.Y.) at a speed setting of 1 for 30 minutes. The tresses were removed from the wells, rinsed for 30 seconds under flowing deionized water and then air dried.
(§7) The following complement of beads was then added to each well containing a hair tress: (8 beads in all; 4 Novagen Coli Rollers Plating Beads—sterilized (EMD Biosciences, San Diego, Calif.; Catalog No. 71013), 2 BioSpec 6.35 mm glass beads (BioSpec Products, Bartlesville, Okla.; Catalog No. 11079635), and 2 BioSpec 3.2 mm Stainless Steel Bead (Catalog No. 11079132ss).
(§8) Then 2.5 mL of aqueous 50% Pantene Pro V® shampoo (Proctor & Gamble Co., Cincinnati, Ohio) was pipetted into each well. The plate was placed on a VWR® VX-2500 Multi-tube Vortexer (VWR, West Chester, Pa.) for 5 minutes to simulate shampooing with embrocation. The hair tresses were then rinsed under flowing deionized water and air dried. This cycle was repeated two more times except that the length of time was 10 minutes for both subsequent embrocation cycles. (This treatment was previously determined to simulate approximately 12 manual shampoo cycles.) At the conclusion of the third embrocation cycle L*, a* and b* values were measured and Delta E values (ΔE) were calculated using equation 1 below:
(§9) where L*=the lightness variable and a* and b* are the chromaticity coordinates of CIELAB colorspace as defined by the International Commission of Illumination (CIE) (Minolta, Precise Color Communication—Color Control From Feeling to Instrumentation, Minolta Camera Co., 1996).
(§10) The Delta E value (ΔE) indicates color retention relative to the non-dyed hair and larger Delta E values indicate better performance. Values listed in the table represent the difference in Delta E values between the peptide-containing sample and the peptide free control. This difference is indicative of color retention after shampoo or water rinse treatments and positive values indicate better performance relative to the peptide free controls (Table 12).

[5] = as above; design: species or system human; details: difference in Delta E between peptide sample and peptide free control after 3 embrocation cycles (about 12 manual shampoos); pH 8.5-9.0; >2 benefit, >4 substantial benefit
Protocol: as §3, §4, §5, §6, §7, §8, §9, §10

[6] = Charged multi-block peptide applied to dyed hair (Arianor Sienna Brown, Basic Brown 17) as protective sealant, color loss; design: species or system human; key: ΔE color loss vs peptide-free control; ≥3 units = meaningful difference
Protocol: A 0.5% aqueous Arianor Sienna Brown (Basic Brown 17; Sensient Technologies Corp, Milwaukee, Wis.) solution, containing 3% benzyl alcohol and 0.05% diazolidinyl urea (biocide) was prepared. This dye solution was divided into two equal volumes, one unmodified at pH4 and a second portion adjusted to pH ranged from 8.50 to 9.0, using ethanolamine.
Minitresses (1 inch long) of natural white hair (International Hair Importers and Products, Bellerose, N.Y.) were immersed into the acidic or basic dye solutions for 30 minutes, water rinsed and then air dried overnight. The tresses were then cut into individual sections weighing 30-75 mg each. L*, a*, b* values for individual dyed hair tresses were then measured using a spectrophotometer.
Aqueous peptide solutions varying in concentration were adjusted by addition of ethanolamine to pH […] or made slightly basic (pH 8.5-9.0). The 3% benzyl alcohol diluent was also pH adjusted in the same fashion.
as §7, with “Each cavity of a well plate (Thomson Instrument Co. part no. 931565, 24-10 ml wells), contained the assortment” for “The following complement”, “beads” for “beads was then added to each well containing a hair tress:”
Target peptide and diluent were added using an automatic pipette. Controls without peptide were made using pH-adjusted diluent only. After several minutes of mixing (VORTEX-GENIE® 2, Scientific Industries, Bohemia, N.Y.) a small dyed hair tress was added to each well and stirred for 30 minutes on the vortex mixer. When stirring was complete, the hair tresses were removed from the wells and rinsed under running deionized water for 20-30 seconds.
The wet hair tresses were inserted into a modified well plate into which holes had been drilled to allow them to be air dried. Once the tresses were dried, colorimetric readings were taken for color loss after water rinse. Hair tresses were reinserted into their respective wells along with beads and 2.5 mL of aqueous 50% Pantene Pro V® shampoo was pipetted onto the hair. The plate was placed into a VWR® VX-2500 Multi-tube Vortexer (VWR, West Chester, Pa.) for 5-15 minutes to simulate shampooing with embrocation. The hair tresses were then rinsed under flowing deionized water and air dried. This cycle was repeated according to the number of simulated embrocation cycles desired. Colorimetric data for color loss was compiled and plotted against peptide free controls. A difference of at least 3 Delta E units verses controls was judged to be sufficient for differentiating peptide performance verses peptide free controls.

NTCATSPNSYTCSN [BoEn 6]
O.D. at 450 nm [1]: 2.38

LNDQRKPGPPTMPTHSPAVG [BoEn 5]
O.D. at 450 nm [1]: 0.944

EPPTRTRVNNHTVTVQAQQH [BoEn P2]
O.D. at 450 nm [2]: 0.641

YSETPNDQKPNPHYKVSGTK [BoEn 10]
O.D. at 450 nm [1]: 3.942

NTCQPTKNATPCSA [BoEn P6]
O.D. at 450 nm [2]: 0.83

AANPHTEWDRDAFQLAMPPK [BoEn 1]
O.D. at 450 nm [1]: 1.402

KF11-GGG-GHGHQKQHGLGHGHKHGHGHGHGHGK (PNTSQLSTGGGGHGHQKQHGLGHGHKHGHGHGHGHGK; Peptide having affinity for hair) [HC 81]
Delta E [3]: 31.57
ΔE Retention Ebony Dye Regular Bleached Hair [4]: −0.1
ΔE Retention Ebony dye with Natural White Hair [4]: 0.6
ΔE Retention Ebony Dye with 85% Gray Hair [5]: 7.58

SDCTAGLVPPLCAT [BoEn 7]
O.D. at 450 nm [1]: 0.892

VGTMKQHPTTTQPPRVSATN [BoEn 9]
O.D. at 450 nm [1]: 0.568

NFCETQLDLSVCTV [BoEn P5]
O.D. at 450 nm [2]: 0.797

THNMSHFPPSGHPKRTAT [BoEn P8]
O.D. at 450 nm [2]: 2.02

SSNYNYNYNYQYSSR (Peptide having affinity for hair) [Dye-1, reference compound]
ΔE Loss ([6]; pH 3.9, 12 shampoo equivalents): 14

SSNYNYNYNYQYSSR-KRKRKD (SSNYNYNYNYQYSSRKRKRKD; Peptide having affinity for hair) [Dye-1 Cationic]
ΔE Loss ([6]; pH 4.5, 25 shampoo equivalents): 6
ΔE Loss ([6]; pH 8.7, 25 shampoo equivalents): 3.22

SSNYNYNYNYQYSSR-EGEGER (SSNYNYNYNYQYSSREGEGER; Peptide having affinity for hair) [Dye-1 Anionic]
ΔE Loss ([6]; pH 4.5, 12 shampoo equivalents): 1.93
ΔE Loss ([6]; pH 8.8, 12 shampoo equivalents): 0.34

GYCLRGDEPAVCSG [BoEn P3]
O.D. at 450 nm [2]: 0.665

B1: PG-PMMA4A-GAG-PMMA4A-GGSGPGSGG-KF11-GGG-KF11-GGPKK (peptide)
chain: PGHTHHDTHKPWPTDAHRNSSVGAGHTHHDTHKPWPTDAHRNSSVGGSGPGSGGNTSQLSTGGGNTSQLSTGGPKK
modifications: Peptide having affinity for hair
ΔE Loss ([6]; pH 5.1, 12 shampoo equivalents): 11.56
ΔE Loss ([6]; pH 8.8, 12 shampoo equivalents): 6.95

B2: PG-PMMA9-GAG-PMMA9-GGSGPGSGG-KF11-GS(KGGGS)4-KF11-GGPWKK (peptide)
chain: PGIDTFYMSTMSHSGAGIDTFYMSTMSHSGGSGPGSGGNTSQLSTGSKGGGSKGGGSKGGGSKGGGSNTSQLSTGGPWKK
modifications: Peptide having affinity for hair
ΔE Loss ([6]; pH 5.7, 12 shampoo equivalents): 11.41
